Key:
Format in all cases: cell-based
Candida parapsilosis = experiment: Antifungal activity in vitro, resazurin growth inhibition screen: Candida parapsilosis; details: Candida parapsilosis B66126
Description: (§1) The standard susceptibility screen was performed in 96-well plates (U-bottom, Greiner Bio-One). Serial dilutions (2-fold or 4-fold) of 20 mM compound stock solutions were made in 100% DMSO, followed by an intermediate dilution step in water. These serial dilutions (10 μl) were then spotted onto test-plates that could be stored in the dark at 4° C. for a maximum period of 2 weeks. An adequate broad dose-range was included with 64 μM as the highest in-test concentration. […] The different fungal species/isolates (Table 3a) were cryopreserved and 1/1000 diluted in medium just prior to use. A standard inoculum of 200 μl containing 10^3 colony-forming unit (cfu) was then added to each well. A positive control (100% growth=fungal culture without antifungal) and a negative control (0% growth=RPMI-MOPS medium) were included on each plate.

Trichophyton rubrum = experiment: Antifungal activity in vitro, resazurin growth inhibition screen: Trichophyton rubrum; details: Trichophyton rubrum B68183
Description: as §1

Sporothrix schenkii = experiment: Antifungal activity in vitro, resazurin growth inhibition screen: Sporothrix schenkii; details: Sporothrix schenkii B62482
Description: as §1

Microsporum canis = experiment: Antifungal activity in vitro, resazurin growth inhibition screen: Microsporum canis; details: Microsporum canis B68128
Description: as §1

Aspergillus fumigatus = experiment: Antifungal activity in vitro, resazurin growth inhibition screen: Aspergillus fumigatus; details: Aspergillus fumigatus B42928
Description: as §1

Cryptococcus neoformans = experiment: Antifungal activity in vitro, resazurin growth inhibition screen: Cryptococcus neoformans; details: Cryptococcus neoformans B66663
Description: as §1

[1] = test system: Trichophyton mentagrophytes; experiment: Antifungal activity in vitro, resazurin growth inhibition screen: Trichophyton mentagrophytes; details: Trichophyton mentagrophytes B70554
Description: as §1

Compound	Inf. D pIC50 (Candida parapsilosis)	Inf. C pIC50 (Trichophyton rubrum)	Inf. A pIC50 (Sporothrix schenkii)	Inf. B pIC50 (Microsporum canis)	Inf. E pIC50 (Aspergillus fumigatus)	Inf. F pIC50 (Cryptococcus neoformans)	Inf. G pIC50 [1]
Br.c1ccc2c(c1)CNC(c1ccc3c(c1)OCO3)c1cccn1-2 (stereo not drawn) [Compound 2, 4-(1,3-benzodioxol-5-yl)-5,6-dihydro-4H-pyrrolo[1,2-a][1,4]benzodiazepine .HBr]	<4.19	4.96	<4.19	4.42	<4.19	<4.19	–
Clc1cccc2c1CNC(c1ccc3c(c1)OCO3)c1cccn1-2 (stereo not drawn) [Compound 3, 4-(1,3-benzodioxol-5-yl)-7-chloro-5,6-dihydro-4H-pyrrolo[1,2-a][1,4]benzo-diazepine]	<4.19	4.47	<4.19	4.91	<4.19	4.30	4.71
Br.Clc1cccc2c1CNC(c1ccc3c(c1)OCO3)c1cccn1-2 (stereo not drawn) [Compound 4, 4-(1,3-benzodioxol-5-yl)-7-chloro-5,6-dihydro-4H-pyrrolo[1,2-a][1,4]benzo-diazepine .HBr]	<4.19	5.70	<4.19	5.09	<4.19	4.38	–
Br.Clc1ccc2c(c1)CNC(c1ccc3c(c1)OCO3)c1cccn1-2 (stereo not drawn) [Compound 5, 4-(1,3-benzodioxol-5-yl)-8-chloro-5,6-dihydro-4H-pyrrolo[1,2-a][1,4]benzo-diazepine .HBr]	<4.19	5.05	<4.19	5.11	<4.19	4.42	–
Br.Clc1ccc2c(c1)-n1cccc1C(c1ccc3c(c1)OCO3)NC2 (stereo not drawn) [Compound 6, 4-(1,3-benzodioxol-5-yl)-9-chloro-5,6-dihydro-4H-pyrrolo[1,2-a][1,4]benzo-diazepine .HBr]	<4.19	5.15	4.21	5.00	<4.19	5.10	4.50
Br.Clc1cccc2c1-n1cccc1C(c1ccc3c(c1)OCO3)NC2 (stereo not drawn) [Compound 7, 4-(1,3-benzodioxol-5-yl)-10-chloro-5,6-dihydro-4H-pyrrolo[1,2-a][1,4]benzo-diazepine .HBr]	<4.19	5.40	<4.19	5.30	<4.19	4.64	4.47
Br.COc1cccc2c1CNC(c1ccc3c(c1)OCO3)c1cccn1-2 (stereo not drawn) [Compound 8, 4-(1,3-benzodioxol-5-yl)-5,6-dihydro-7-methoxy-4H-pyrrolo[1,2-a][1,4]benzo-diazepine .HBr]	<4.19	5.22	<4.19	4.66	<4.19	<4.19	<4.19
Clc1cccc2c1CN=C(c1ccc3c(c1)OCO3)c1cccn1-2 [Compound 10, 4-(1,3-benzodioxol-5-yl)-7-chloro-6H-pyrrolo[1,2-a][1,4]benzo-diazepine]	<4.19	5.70	<4.19	5.00	<4.19	4.48	5.30
Br.CCOc1cc2c(cc1C1NCc3c(Cl)cccc3-n3cccc31)CCC2 (stereo not drawn) [Compound 14, 7-chloro-4-(6-ethoxy-2,3-dihydro-1H-inden-5-yl)-5,6-dihydro-4H-pyrrolo[1,2-a]-[1,4]benzodiazepine .HBr]	<4.19	5.52	<4.19	5.10	<4.19	4.82	–
Br.COc1cc2c(cc1C1NCc3c(Cl)cccc3-n3cccc31)CCCC2 (stereo not drawn) [Compound 15, 7-chloro-5,6-dihydro-4-(5,6,7,8-tetrahydro-3-methoxy-2-naphthalenyl)-4H-pyrrolo-[1,2-a][1,4]benzodiazepine .HBr]	<4.19	5.40	<4.19	<4.19	<4.19	<4.19	<4.19
Cl.Clc1ccc(Cl)c2c1CNC(c1ccc3c(c1)CCC3)c1cccn1-2 (stereo not drawn) [Compound 16, 7,10-dichloro-4-(2,3-dihydro-1H-inden-5-yl)-5,6-dihydro-4H-pyrrolo[1,2-a][1,4]-benzodiazepine .HCl]	<4.19	5.40	<4.19	5.00	<4.19	<4.19	4.52
Cl.Clc1cc(Cl)c2c(c1)CNC(c1ccc3c(c1)CCC3)c1cccn1-2 (stereo not drawn) [Compound 17, 8,10-dichloro-4-(2,3-dihydro-1H-inden-5-yl)-5,6-dihydro-4H-pyrrolo[1,2-a][1,4]-benzodiazepine .HCl]	<4.19	5.70	<4.19	<4.19	5.46	<4.19	4.71
Cl.Clc1ccc2c(c1Cl)CNC(c1ccc3c(c1)CCC3)c1cccn1-2 (stereo not drawn) [Compound 18, 7,8-dichloro-4-(2,3-dihydro-1H-inden-5-yl)-5,6-dihydro-4H-pyrrolo[1,2-a][1,4]-benzodiazepine .HCl]	<4.19	5.70	<4.19	4.62	4.67	<4.19	5.26
Cl.Clc1cc(Cl)c2c(c1)-n1cccc1C(c1ccc3c(c1)CCC3)NC2 (stereo not drawn) [Compound 19, 7,9-dichloro-4-(2,3-dihydro-1H-inden-5-yl)-5,6-dihydro-4H-pyrrolo[1,2-a][1,4]-benzodiazepine .HCl]	<4.19	6.00	<4.19	5.40	4.96	5.70	5.63
Cl.Clc1cccc2c1CNC(c1ccc3c(c1)CCO3)c1cccn1-2 (stereo not drawn) [Compound 26, 7-chloro-4-(2,3-dihydro-5-benzofuranyl)-5,6-dihydro-4H-pyrrolo[1,2-a][1,4]benzo-diazepine .HCl]	4.25	6.25	<4.19	6.00	4.85	<4.19	5.70
Cl.Clc1cccc2c1CNC(c1ccc3c(c1)OCC3)c1cccn1-2 (stereo not drawn) [Compound 27, 7-chloro-4-(2,3-dihydro-6-benzofuranyl)-5,6-dihydro-4H-pyrrolo[1,2-a][1,4]benzo-diazepine .HCl]	<4.19	6.32	<4.19	5.15	<4.19	<4.19	4.96
Cl.Fc1cccc2c1CNC(c1ccc3c(c1)CCOC3)c1cccn1-2 (stereo not drawn) [Compound 29, 4-(3,4-dihydro-1H-2-benzopyran-6-yl)-7-fluoro-5,6-dihydro-4H-pyrrolo[1,2-a]-[1,4]benzodiazepine .HCl]	<4.19	4.44	<4.19	<4.19	<4.19	<4.19	<4.19
Cl.Clc1ccc2c(c1Cl)CNC(c1ccc3c(c1)CCO3)c1cccn1-2 (stereo not drawn) [Compound 30, 7,8-dichloro-4-(2,3-dihydro-5-benzofuranyl)-5,6-dihydro-4H-pyrrolo[1,2-a][1,4]-benzodiazepine .HCl]	<4.19	5.22	<4.19	6.00	<4.19	5.22	5.00
Cl.Clc1cc(Cl)c2c(c1)-n1cccc1C(c1ccc3c(c1)CCO3)NC2 (stereo not drawn) [Compound 31, 7,9-dichloro-4-(2,3-dihydro-5-benzofuranyl)-5,6-dihydro-4H-pyrrolo[1,2-a][1,4]-benzodiazepine .HCl]	<4.19	6.00	<4.19	5.52	<4.19	<4.19	5.80
Br.COc1cc2c(cc1C1NCc3c(Cl)cccc3-n3cccc31)OC(C)C2 (stereo not drawn) [Compound 49, 7-chloro-4-(2,3-dihydro-5-methoxy-2-methyl-6-benzofuranyl)-5,6-dihydro-4H-pyrrolo[1,2-a][1,4]benzodiazepine .HBr]	<4.19	5.10	<4.19	5.05	<4.19	4.34	–

Source: patent publication US9040524B2, “Antifungal 5,6-dihydro-4H-pyrrolo[1,2-a][1,4]-benzodiazepines and 6H-pyrrolo[1,2-a][1,4]benzodiazepines substituted with bicycle benzene derivatives” (JANSSEN PHARMACEUTICA NV, priority 2010, dated 2015)
